EPA's ToxValDB 9.5 (doi:10.2903/j.efsa.2011.2091)
In brackets after ≈: the same amount, converted by molar mass.

Assays:
Anas platyrhynchos = conditions: reproductive; mortality
Bibionidae = conditions: chronic/long-term; duration: 28 days; development
Colinus virginianus = conditions: acute, oral, mortality; for LC50: diet
Daphnia magna = conditions: chronic/long-term; duration: 21 days; reproduction
Oncorhynchus mykiss = conditions: chronic/long-term; duration: 21 days; mortality
Lepomis macrochirus = conditions: acute; duration: 96 hours; mortality
Oryctolagus sp. = conditions: chronic; mortality
Apis mellifera = conditions: acute, mortality
Landoltia sp. = conditions: acute; duration: 14 days; frond number

Row | SMILES | NOEC (Anas platyrhynchos) [mg/kg-day] | NOEC (Bibionidae) [mg/L] | LC50 (Colinus virginianus) [mg/kg-day] | LD50 (Colinus virginianus) [mg/kg-day] | LD50 (Rattus norvegicus; acute, oral, mortality) [mg/kg-day] | NOEC (Daphnia magna) [mg/L] | NOEC (Oncorhynchus mykiss) [mg/L] | NOAEL (Rattus norvegicus; chronic, duration: 2 years) [mg/kg-day] | NOAEL (Rattus norvegicus; subchronic, oral) [mg/kg-day] | LC50 (Lepomis macrochirus) [µg/mL] | NOEL (Oryctolagus sp.) [mg/kg-day] | LC50 (Tagia sp.; acute, duration: 14 days, mortality) [mg/kg] | NOEC (Tagia sp.; chronic/long-term, duration: 56 days) [mg/kg] | LD50 (Apis mellifera; dermal) [µg/piece] | LD50 (Apis mellifera; oral, unspecified) [µg/piece] | LC50 (Landoltia sp.) [µg/mL]
1 | CCCCCCC(C)OC(=O)COc1nc(F)c(Cl)c(N)c1Cl (centres undefined) [Fluroxypyr-meptyl] | 57.8 | 0.13 | > 1040 | > 2000 | > 2000 | – | – | – | – | – | – | – | – | – | – | –
2 | Nc1c(Cl)c(F)nc(OCC(=O)O)c1Cl [Fluroxypyr] | 40.1 | – | > 757 | > 2000 | – | 56 | 100 | 80 | 80 | 14.3 (≈ 56.1 µM) | 100 | 64.8 | 3.05 | > 180 | 37.1 | 12.3 (≈ 48.2 µM)
